HELM strings list units from the 5' end as sugar, base in round brackets, then linkage (d deoxyribose, r ribose, m 2'-O-methyl, p phosphodiester). Strings are as the collection lists them, not checked against the first reports. ss, as = sense and antisense strand; [una] = unlocked nucleic acid; [fl2r] = 2'-fluoro
Further: test system not given here.

The conditions of this data set: siRNA.
Turning to “RNA1{r(G)p.r(G)p.r(A)p.r(C)p.r(A)p.r(U)p.r(U)p.r(C)p.r(A)p.r(G)p.r(A)p.r(A)p.r(C)p.r(A)p.r(A)p.r(G)p.r(A)p.r(A)p.r(A)p.[una](U)p.[una](U)}|RNA2{r(U)p.r(U)p.r(U)p.r(C)p.r(U)p.r(U)p.r(G)p.r(U)p.r(U)p.[una](C)p.r(U)p.r(G)p.r(A)p.r(A)p.r(U)p.r(G)p.r(U)p.r(C)p.r(C)p.[una](U)p.[una](U)}$$$RNA1{StrandType:ss}|RNA2{StrandType:as}$”, the target mRNA knockdown stood at 17%.

In turn, “RNA1{r(G)p.r(G)p.r(A)p.r(G)p.m(C)p.r(A)p.r(C)p.r(G)p.r(C)p.r(U)p.m(U)p.r(A)p.r(C)p.m(U)p.r(A)p.r(C)p.r(C)p.r(U)p.r(U)p.r(T)p.r(T)}|RNA2{r(A)p.r(A)p.r(G)p.r(G)p.m(U)p.r(A)p.r(G)p.m(U)p.r(A)p.r(A)p.r(G)p.r(C)p.r(G)p.m(U)p.r(G)p.r(C)p.r(U)p.r(C)p.r(C)p.r(T)p.r(T)}$$$RNA1{StrandType:ss}|RNA2{StrandType:as}$” gave a target mRNA knockdown of 68%.

For “RNA1{r(G)p.r(G)p.r(A)p.r(G)p.r(C)p.m(U)p.m(A)p.r(G)p.r(A)p.r(C)p.r(G)p.r(G)p.r(G)p.m(U)p.r(A)p.r(C)p.r(G)p.r(A)p.r(G)p.r(T)p.r(T)}|RNA2{r(C)p.r(U)p.r(C)p.r(G)p.r(U)p.r(A)p.r(C)p.r(C)p.r(C)p.r(G)p.r(U)p.r(C)p.m(U)p.r(A)p.r(G)p.r(C)p.r(U)p.r(C)p.r(C)p.r(T)p.r(T)}$$$RNA1{StrandType:ss}|RNA2{StrandType:as}$”, the target mRNA knockdown amounted to 81%.

On to “RNA1{r(G)p.r(G)p.r(A)p.r(G)p.r(C)p.m(U)p.r(A)p.r(G)p.r(A)p.r(C)p.r(G)p.r(G)p.r(G)p.m(U)p.r(A)p.r(C)p.r(G)p.r(A)p.r(G)p.r(T)p.r(T)}|RNA2{r(C)p.r(U)p.r(C)p.r(G)p.m(U)p.r(A)p.r(C)p.r(C)p.r(C)p.r(G)p.r(U)p.r(C)p.m(U)p.r(A)p.r(G)p.r(C)p.r(U)p.r(C)p.r(C)p.r(T)p.r(T)}$$$RNA1{StrandType:ss}|RNA2{StrandType:as}$”, for which the target mRNA knockdown stood at 82%.

The substance “RNA1{r(G)p.r(G)p.r(A)p.r(G)p.r(C)p.r(A)p.r(C)p.r(G)p.r(C)p.r(U)p.m(U)p.r(A)p.r(C)p.m(U)p.r(A)p.r(C)p.r(C)p.r(U)p.r(U)p.r(T)p.r(T)}|RNA2{r(A)p.r(A)p.r(G)p.r(G)p.m(U)p.r(A)p.r(G)p.m(U)p.r(A)p.r(A)p.r(G)p.r(C)p.r(G)p.r(U)p.r(G)p.r(C)p.r(U)p.r(C)p.r(C)p.r(T)p.r(T)}$$$RNA1{StrandType:ss}|RNA2{StrandType:as}$” showed a target mRNA knockdown of 69%.

“RNA1{r(G)p.r(G)p.r(C)p.m(C)p.r(A)p.r(A)p.r(A)p.r(G)p.m(U)p.r(A)p.r(A)p.r(U)p.r(C)p.r(G)p.m(U)p.r(G)p.r(G)p.r(U)p.r(U)p.r(T)p.r(T)}|RNA2{r(A)p.r(A)p.r(C)p.m(C)p.r(A)p.r(C)p.r(G)p.r(A)p.r(U)p.m(U)p.r(A)p.r(C)p.r(U)p.r(U)p.m(U)p.r(G)p.r(G)p.r(C)p.r(C)p.r(T)p.r(T)}$$$RNA1{StrandType:ss}|RNA2{StrandType:as}$” had a target mRNA knockdown of 86%.

The substance “RNA1{r(G)p.r(G)p.r(C)p.r(C)p.r(A)p.r(A)p.r(A)p.r(G)p.m(U)p.r(A)p.r(A)p.r(U)p.r(C)p.r(G)p.r(U)p.r(G)p.r(G)p.r(U)p.r(U)p.r(T)p.r(T)}|RNA2{r(A)p.r(A)p.r(C)p.r(C)p.r(A)p.r(C)p.r(G)p.r(A)p.r(U)p.m(U)p.r(A)p.r(C)p.r(U)p.r(U)p.r(U)p.r(G)p.r(G)p.r(C)p.r(C)p.r(T)p.r(T)}$$$RNA1{StrandType:ss}|RNA2{StrandType:as}$” displayed a target mRNA knockdown of 85%.

Regarding “RNA1{r(G)p.r(G)p.r(C)p.r(C)p.r(U)p.r(U)p.r(U)p.r(C)p.r(A)p.r(C)p.r(U)p.r(A)p.r(C)p.r(U)p.r(C)p.r(C)p.r(U)p.r(A)p.r(C)p.d(T)p.d(T)}|RNA2{r(G)p.r(U)p.r(A)p.r(G)p.r(G)p.r(A)p.r(G)p.r(U)p.r(A)p.r(G)p.r(U)p.r(G)p.r(A)p.r(A)p.r(A)p.r(G)p.r(G)p.r(C)p.r(C)p.d(T)p.d(T)}$$$RNA1{StrandType:ss}|RNA2{StrandType:as}$”, the target mRNA knockdown stood at 36%.

For the substance “RNA1{r(G)p.r(G)p.r(C)p.r(C)p.r(U)p.r(U)p.r(U)p.r(C)p.r(U)p.r(C)p.r(U)p.r(C)p.m(U)p.r(A)p.r(G)p.r(A)p.m(U)p.r(A)p.r(U)p.r(T)p.r(T)}|RNA2{r(A)p.m(U)p.r(A)p.r(U)p.r(C)p.m(U)p.r(A)p.r(G)p.r(A)p.r(G)p.r(A)p.r(G)p.r(A)p.r(A)p.r(A)p.r(G)p.r(G)p.r(C)p.r(C)p.r(T)p.r(T)}$$$RNA1{StrandType:ss}|RNA2{StrandType:as}$”, the target mRNA knockdown was found to be 89%.

In turn, “RNA1{r(G)p.r(G)p.r(C)p.r(C)p.r(U)p.r(U)p.r(U)p.r(C)p.r(U)p.r(C)p.r(U)p.r(C)p.r(U)p.r(A)p.r(G)p.r(A)p.r(U)p.r(A)p.r(U)p.r(T)p.r(T)}|RNA2{r(A)p.m(U)p.r(A)p.r(U)p.r(C)p.m(U)p.r(A)p.r(G)p.r(A)p.r(G)p.r(A)p.r(G)p.r(A)p.r(A)p.r(A)p.r(G)p.r(G)p.r(C)p.r(C)p.r(T)p.r(T)}$$$RNA1{StrandType:ss}|RNA2{StrandType:as}$” showed a target mRNA knockdown of 90%.

For “RNA1{r(G)p.r(G)p.r(C)p.r(G)p.r(G)p.r(G)p.r(C)p.r(U)p.r(C)p.r(U)p.r(U)p.r(U)p.r(C)p.r(C)p.m(U)p.r(A)p.r(U)p.r(U)p.r(C)p.r(T)p.r(T)}|RNA2{r(G)p.r(A)p.r(A)p.m(U)p.r(A)p.r(G)p.r(G)p.r(A)p.r(A)p.r(A)p.r(G)p.r(A)p.r(G)p.r(C)p.r(C)p.r(C)p.r(G)p.r(C)p.r(C)p.r(T)p.r(T)}$$$RNA1{StrandType:ss}|RNA2{StrandType:as}$”, the target mRNA knockdown worked out at 69%.

Take “RNA1{r(G)p.r(G)p.r(C)p.r(U)p.[fl2r](U)p.r(A)p.r(G)p.r(U)p.[fl2r](C)p.r(A)p.r(C)p.r(U)p.r(C)p.r(C)p.r(U)p.r(C)p.r(U)p.r(U)p.r(C)p.r(T)p.r(T)}|RNA2{r(G)p.r(A)p.r(A)p.r(G)p.r(A)p.r(G)p.r(G)p.r(A)p.r(G)p.[fl2r](U)p.r(G)p.r(A)p.r(C)p.[fl2r](U)p.r(A)p.r(A)p.r(G)p.r(C)p.r(C)p.r(T)p.r(T)}$$$RNA1{StrandType:ss}|RNA2{StrandType:as}$”: the target mRNA knockdown came to 68%.

“RNA1{r(G)p.r(G)p.r(C)p.r(U)p.[fl2r](U)p.r(A)p.r(G)p.r(U)p.r(C)p.r(A)p.r(C)p.r(U)p.r(C)p.r(C)p.r(U)p.r(C)p.r(U)p.r(U)p.r(C)p.r(T)p.r(T)}|RNA2{r(G)p.r(A)p.r(A)p.r(G)p.r(A)p.r(G)p.r(G)p.r(A)p.r(G)p.r(U)p.r(G)p.r(A)p.r(C)p.[fl2r](U)p.r(A)p.r(A)p.r(G)p.r(C)p.r(C)p.r(T)p.r(T)}$$$RNA1{StrandType:ss}|RNA2{StrandType:as}$” had a target mRNA knockdown of 69%.

Substance “RNA1{r(G)p.r(G)p.r(G)p.r(A)p.r(A)p.r(A)p.[fl2r](C)p.[fl2r](U)p.r(G)p.r(A)p.r(A)p.r(A)p.r(G)p.r(G)p.[fl2r](C)p.[fl2r](U)p.r(A)p.[fl2r](U)p.r(G)p.r(T)p.r(T)}|RNA2{r(C)p.r(A)p.r(U)p.r(A)p.r(G)p.r(C)p.r(C)p.r(U)p.r(U)p.r(U)p.r(C)p.r(A)p.r(G)p.r(U)p.r(U)p.r(U)p.r(C)p.r(C)p.r(C)p.r(T)p.r(T)}$$$RNA1{StrandType:ss}|RNA2{StrandType:as}$” displayed a target mRNA knockdown of 51%.

“RNA1{r(G)p.r(G)p.r(G)p.r(A)p.r(A)p.r(A)p.r(C)p.r(U)p.r(G)p.r(A)p.r(A)p.r(A)p.r(G)p.r(G)p.r(C)p.[fl2r](U)p.r(A)p.r(U)p.r(G)p.r(T)p.r(T)}|RNA2{r(C)p.r(A)p.r(U)p.r(A)p.r(G)p.r(C)p.r(C)p.r(U)p.r(U)p.r(U)p.r(C)p.r(A)p.r(G)p.r(U)p.r(U)p.r(U)p.r(C)p.r(C)p.r(C)p.r(T)p.r(T)}$$$RNA1{StrandType:ss}|RNA2{StrandType:as}$” showed a target mRNA knockdown of 50%.

As for “RNA1{r(G)p.r(G)p.r(G)p.r(A)p.r(A)p.r(A)p.r(C)p.r(U)p.r(G)p.r(A)p.r(A)p.r(A)p.r(G)p.r(G)p.r(C)p.r(U)p.r(A)p.r(U)p.r(G)p.r(T)p.r(T)}|RNA2{[fl2r](C)p.r(A)p.[fl2r](U)p.r(A)p.r(G)p.[fl2r](C)p.[fl2r](C)p.[fl2r](U)p.[fl2r](U)p.[fl2r](U)p.[fl2r](C)p.r(A)p.r(G)p.[fl2r](U)p.[fl2r](U)p.[fl2r](U)p.[fl2r](C)p.[fl2r](C)p.[fl2r](C)p.r(T)p.r(T)}$$$RNA1{StrandType:ss}|RNA2{StrandType:as}$”, the target mRNA knockdown was 6%.

For “RNA1{r(G)p.r(G)p.r(G)p.r(A)p.r(G)p.r(G)p.r(A)p.[fl2r](U)p.[fl2r](G)p.r(A)p.[fl2r](C)p.r(A)p.r(A)p.r(A)p.r(G)p.r(A)p.r(A)p.r(G)p.r(C)p.r(T)p.r(T)}|RNA2{r(G)p.r(C)p.r(U)p.r(U)p.r(C)p.r(U)p.r(U)p.[fl2r](U)p.r(G)p.r(U)p.[fl2r](C)p.r(A)p.r(U)p.r(C)p.r(C)p.r(U)p.r(C)p.r(C)p.r(C)p.r(T)p.r(T)}$$$RNA1{StrandType:ss}|RNA2{StrandType:as}$”, the target mRNA knockdown stood at 78%.

With “RNA1{r(G)p.r(G)p.r(G)p.r(A)p.r(G)p.r(G)p.r(A)p.r(U)p.[fl2r](G)p.r(A)p.r(C)p.[fl2r](A)p.r(A)p.r(A)p.r(G)p.r(A)p.r(A)p.r(G)p.r(C)p.r(T)p.r(T)}|RNA2{r(G)p.r(C)p.r(U)p.r(U)p.r(C)p.r(U)p.r(U)p.[fl2r](U)p.r(G)p.r(U)p.r(C)p.r(A)p.r(U)p.r(C)p.r(C)p.r(U)p.r(C)p.r(C)p.r(C)p.r(T)p.r(T)}$$$RNA1{StrandType:ss}|RNA2{StrandType:as}$”, the target mRNA knockdown amounted to 84%.

Substance “RNA1{r(G)p.r(G)p.r(G)p.r(A)p.r(G)p.r(G)p.r(A)p.r(U)p.r(G)p.r(A)p.r(C)p.r(A)p.r(A)p.r(A)p.r(G)p.r(A)p.r(A)p.r(G)p.r(C)p.r(T)p.r(T)}|RNA2{r(G)p.[fl2r](C)p.r(U)p.r(U)p.[fl2r](C)p.r(U)p.r(U)p.r(U)p.r(G)p.r(U)p.[fl2r](C)p.r(A)p.r(U)p.[fl2r](C)p.[fl2r](C)p.r(U)p.[fl2r](C)p.[fl2r](C)p.[fl2r](C)p.r(T)p.r(T)}$$$RNA1{StrandType:ss}|RNA2{StrandType:as}$” registered a target mRNA knockdown of 37%.

“RNA1{r(G)p.r(G)p.r(G)p.r(A)p.r(G)p.r(G)p.r(U)p.r(C)p.r(U)p.m(U)p.r(A)p.r(G)p.r(A)p.r(A)p.r(A)p.r(A)p.r(C)p.r(A)p.r(C)p.r(T)p.r(T)}|RNA2{r(G)p.r(U)p.r(G)p.r(U)p.r(U)p.r(U)p.r(U)p.r(C)p.m(U)p.r(A)p.r(A)p.r(G)p.r(A)p.r(C)p.r(C)p.r(U)p.r(C)p.r(C)p.r(C)p.r(T)p.r(T)}$$$RNA1{StrandType:ss}|RNA2{StrandType:as}$” displayed a target mRNA knockdown of 84%.

For the origin of these results see the OligoGym collection.
